According to ChEMBL document CHEMBL4321812, “Structure-based rational design of staurosporine-based fluorescent probe with broad-ranging kinase affinity for kinase panel application” (Bioorg Med Chem Lett, 2019):

Legend:
[1] = molecular target: Protein kinase C eta type (Homo sapiens, UniProt P24723); assay: Binding affinity to recombinant full-length N-terminal His-FLAG-GST-tagged PRKCH (unknown origin) expressed in baculovirus infected Sf9 insect cells incubated for 1 hr by TR-FRET assay
[2] = molecular target: STE20-like serine/threonine-protein kinase (Homo sapiens, UniProt Q9H2G2); assay: Binding affinity to recombinant N-terminal His-FLAG-GST-tagged SLK (unknown origin) (1 to 1152 residues) expressed in baculovirus infected Sf9 insect cells incubated for 1 hr by TR-FRET assay
[3] = molecular target: Protein kinase C zeta type (Homo sapiens, UniProt Q05513); assay: Binding affinity to recombinant full-length N-terminal His-FLAG-GST-tagged PRKCZ (unknown origin) expressed in baculovirus infected Sf9 insect cells incubated for 1 hr by TR-FRET assay
[4] = molecular target: Dual specificity protein kinase CLK2 (Homo sapiens, UniProt P49760); assay: Binding affinity to recombinant full-length N-terminal His-FLAG-GST-tagged CLK2 (unknown origin) expressed in baculovirus infected Sf9 insect cells incubated for 1 hr by TR-FRET assay
[5] = molecular target: Tyrosine-protein kinase ITK/TSK (Homo sapiens, UniProt Q08881); assay: Binding affinity to recombinant human full-length N-terminal GST-tagged ITK expressed in baculovirus expression system using srctide as substrate incubated for 1 hr by TR-FRET assay
[6] = molecular target: Protein kinase C delta type (Homo sapiens, UniProt Q05655); assay: Binding affinity to recombinant human full length N-terminal GST-tagged PRKCD expressed in baculovirus expression system using PKC peptide as substrate incubated for 1 hr by TR-FRET assay
[7] = molecular target: Homeodomain-interacting protein kinase 3 (Homo sapiens, UniProt Q9H422); assay: Binding affinity to recombinant N-terminal His-FLAG-GST-tagged HIPK3 (unknown origin) (161 to 562 residues) expressed in baculovirus infected Sf9 insect cells incubated for 1 hr by TR-FRET assay
Chain of Homeodomain-interacting protein kinase 3 (Q9H422 whole entry, the tested form may be a part): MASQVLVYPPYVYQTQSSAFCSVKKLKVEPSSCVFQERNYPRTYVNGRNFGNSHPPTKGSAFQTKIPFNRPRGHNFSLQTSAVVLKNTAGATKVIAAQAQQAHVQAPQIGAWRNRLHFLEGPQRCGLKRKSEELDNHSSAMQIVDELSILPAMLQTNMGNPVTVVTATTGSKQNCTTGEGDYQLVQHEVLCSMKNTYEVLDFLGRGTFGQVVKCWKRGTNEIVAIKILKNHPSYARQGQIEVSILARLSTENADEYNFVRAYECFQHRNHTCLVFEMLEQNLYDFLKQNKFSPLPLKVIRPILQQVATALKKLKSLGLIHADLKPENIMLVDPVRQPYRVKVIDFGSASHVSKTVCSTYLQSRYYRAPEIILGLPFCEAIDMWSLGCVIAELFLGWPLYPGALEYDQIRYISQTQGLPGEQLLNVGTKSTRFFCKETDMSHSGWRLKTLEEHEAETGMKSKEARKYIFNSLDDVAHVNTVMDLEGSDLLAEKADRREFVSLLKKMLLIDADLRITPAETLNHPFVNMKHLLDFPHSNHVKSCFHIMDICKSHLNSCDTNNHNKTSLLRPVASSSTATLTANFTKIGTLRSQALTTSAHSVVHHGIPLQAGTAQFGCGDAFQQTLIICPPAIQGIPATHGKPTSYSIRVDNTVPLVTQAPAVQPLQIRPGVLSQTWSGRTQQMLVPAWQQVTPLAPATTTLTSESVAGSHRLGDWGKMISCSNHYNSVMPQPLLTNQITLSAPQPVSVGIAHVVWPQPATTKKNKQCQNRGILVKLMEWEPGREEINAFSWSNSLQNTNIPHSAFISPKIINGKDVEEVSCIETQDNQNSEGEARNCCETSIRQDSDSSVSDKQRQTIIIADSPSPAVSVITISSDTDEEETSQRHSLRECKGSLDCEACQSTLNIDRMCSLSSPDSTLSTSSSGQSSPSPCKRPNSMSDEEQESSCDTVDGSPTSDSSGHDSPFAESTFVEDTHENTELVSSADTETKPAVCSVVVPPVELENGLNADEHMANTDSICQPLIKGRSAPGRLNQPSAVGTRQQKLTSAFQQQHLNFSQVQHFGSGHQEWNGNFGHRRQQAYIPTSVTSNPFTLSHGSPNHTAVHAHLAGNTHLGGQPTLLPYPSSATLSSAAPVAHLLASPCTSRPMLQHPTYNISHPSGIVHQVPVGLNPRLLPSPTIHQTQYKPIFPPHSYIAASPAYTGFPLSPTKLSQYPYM

[8] = molecular target: Calcium/calmodulin-dependent protein kinase type II subunit beta (Homo sapiens, UniProt Q13554); assay: Binding affinity to recombinant human full length N-terminal GST-tagged CAMK2B expressed in baculovirus expression system using GS peptide as substrate incubated for 1 hr in presence of calmodulin by TR-FRET assay
[9] = molecular target: Ephrin type-A receptor 7 (Homo sapiens, UniProt Q15375); assay: Binding affinity to recombinant N-terminal His-FLAG-GST-tagged EPHA7 (unknown origin) ( 595 to 998 residues) expressed in baculovirus infected Sf9 insect cells incubated for 1 hr by TR-FRET assay
[10] = molecular target: Serine/threonine-protein kinase 32B (Homo sapiens, UniProt Q9NY57); assay: Binding affinity to recombinant full-length N-terminal His-FLAG-GST-tagged STK32B (unknown origin) expressed in baculovirus infected Sf9 insect cells incubated for 1 hr by TR-FRET assay
Chain of Serine/threonine-protein kinase 32B (Q9NY57 whole entry): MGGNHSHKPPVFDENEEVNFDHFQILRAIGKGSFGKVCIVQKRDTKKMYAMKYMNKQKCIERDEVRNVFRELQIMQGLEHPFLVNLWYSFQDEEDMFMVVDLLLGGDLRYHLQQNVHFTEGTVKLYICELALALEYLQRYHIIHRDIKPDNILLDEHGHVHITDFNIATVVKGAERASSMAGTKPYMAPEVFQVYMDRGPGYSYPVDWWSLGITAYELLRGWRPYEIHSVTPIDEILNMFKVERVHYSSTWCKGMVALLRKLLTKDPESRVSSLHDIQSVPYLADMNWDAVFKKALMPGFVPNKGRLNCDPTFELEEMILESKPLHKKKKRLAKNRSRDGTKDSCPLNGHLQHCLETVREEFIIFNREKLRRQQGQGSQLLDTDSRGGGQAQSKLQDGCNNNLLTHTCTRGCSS

[11] = molecular target: Ribosomal protein S6 kinase alpha-5 (Homo sapiens, UniProt O75582); assay: Binding affinity to recombinant full-length N-terminal His-FLAG-GST-tagged RPS6KA5 (unknown origin) expressed in baculovirus infected Sf9 insect cells incubated for 1 hr by TR-FRET assay
Chain of Ribosomal protein S6 kinase alpha-5 (O75582 whole entry, the tested form may be a part): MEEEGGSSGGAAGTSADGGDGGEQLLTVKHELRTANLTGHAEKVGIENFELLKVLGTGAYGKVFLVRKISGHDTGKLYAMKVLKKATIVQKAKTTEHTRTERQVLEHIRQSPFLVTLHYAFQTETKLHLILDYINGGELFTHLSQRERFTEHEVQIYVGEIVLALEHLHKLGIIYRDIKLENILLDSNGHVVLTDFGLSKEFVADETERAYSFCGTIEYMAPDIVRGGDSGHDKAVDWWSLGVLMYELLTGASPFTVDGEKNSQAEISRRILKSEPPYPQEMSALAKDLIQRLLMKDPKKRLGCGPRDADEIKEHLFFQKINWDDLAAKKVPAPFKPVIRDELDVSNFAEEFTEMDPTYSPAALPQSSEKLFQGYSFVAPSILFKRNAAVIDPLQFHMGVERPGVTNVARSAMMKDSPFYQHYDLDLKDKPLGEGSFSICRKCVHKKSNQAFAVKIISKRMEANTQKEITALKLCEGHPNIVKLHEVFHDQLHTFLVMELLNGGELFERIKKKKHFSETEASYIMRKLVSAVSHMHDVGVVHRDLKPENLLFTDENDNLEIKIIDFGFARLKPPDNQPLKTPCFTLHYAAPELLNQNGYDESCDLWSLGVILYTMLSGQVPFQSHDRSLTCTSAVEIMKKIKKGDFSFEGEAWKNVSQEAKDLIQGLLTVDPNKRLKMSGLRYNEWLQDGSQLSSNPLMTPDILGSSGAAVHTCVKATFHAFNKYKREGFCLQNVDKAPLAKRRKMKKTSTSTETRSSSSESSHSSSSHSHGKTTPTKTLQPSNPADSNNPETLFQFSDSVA

[12] = molecular target: Non-receptor tyrosine-protein kinase TYK2 (Homo sapiens, UniProt P29597); assay: Binding affinity to recombinant N-terminal His-FLAG-GST-tagged TYK2 (unknown origin) (871 to 1187 residues) expressed in baculovirus infected Sf9 insect cells incubated for 1 hr by TR-FRET assay
Chain of Non-receptor tyrosine-protein kinase TYK2 (P29597 whole entry, the tested form may be a part): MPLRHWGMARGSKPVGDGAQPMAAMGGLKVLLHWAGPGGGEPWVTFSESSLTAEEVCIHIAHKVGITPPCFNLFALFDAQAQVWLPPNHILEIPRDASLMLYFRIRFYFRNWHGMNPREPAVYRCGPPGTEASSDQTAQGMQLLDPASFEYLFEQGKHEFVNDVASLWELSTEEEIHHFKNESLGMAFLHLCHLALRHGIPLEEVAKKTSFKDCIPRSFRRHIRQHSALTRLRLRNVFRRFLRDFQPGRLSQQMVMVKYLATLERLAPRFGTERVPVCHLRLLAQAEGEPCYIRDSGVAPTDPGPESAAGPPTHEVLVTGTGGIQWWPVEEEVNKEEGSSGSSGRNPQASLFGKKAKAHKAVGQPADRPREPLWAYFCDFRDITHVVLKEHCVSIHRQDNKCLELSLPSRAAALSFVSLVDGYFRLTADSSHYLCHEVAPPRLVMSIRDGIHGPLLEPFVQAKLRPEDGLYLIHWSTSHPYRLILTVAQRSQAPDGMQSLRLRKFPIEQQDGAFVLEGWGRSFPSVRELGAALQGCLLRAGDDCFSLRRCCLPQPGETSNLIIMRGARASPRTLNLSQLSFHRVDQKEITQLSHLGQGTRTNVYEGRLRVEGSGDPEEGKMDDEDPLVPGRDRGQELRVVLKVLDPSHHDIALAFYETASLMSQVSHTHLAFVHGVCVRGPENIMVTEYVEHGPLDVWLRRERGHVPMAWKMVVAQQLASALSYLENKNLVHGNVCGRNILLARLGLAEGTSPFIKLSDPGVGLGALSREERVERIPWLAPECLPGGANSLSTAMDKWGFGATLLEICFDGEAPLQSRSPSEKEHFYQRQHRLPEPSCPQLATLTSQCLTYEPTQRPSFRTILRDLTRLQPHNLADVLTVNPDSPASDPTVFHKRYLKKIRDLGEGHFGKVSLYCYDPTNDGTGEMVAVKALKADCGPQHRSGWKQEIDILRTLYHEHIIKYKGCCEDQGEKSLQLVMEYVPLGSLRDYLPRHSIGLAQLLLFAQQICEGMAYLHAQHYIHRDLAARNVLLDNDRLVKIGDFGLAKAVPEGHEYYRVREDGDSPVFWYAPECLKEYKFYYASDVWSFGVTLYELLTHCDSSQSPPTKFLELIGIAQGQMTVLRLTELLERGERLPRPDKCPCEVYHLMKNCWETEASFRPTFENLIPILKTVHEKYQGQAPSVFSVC

[13] = molecular target: AP2-associated protein kinase 1 (Homo sapiens, UniProt Q2M2I8); assay: Binding affinity to recombinant full-length N-terminal His-FLAG-GST-tagged AAK1 (unknown origin) expressed in baculovirus infected Sf9 insect cells incubated for 1 hr by TR-FRET assay
[14] = molecular target: Mitogen-activated protein kinase kinase kinase 5 (Homo sapiens, UniProt Q99683); assay: Binding affinity to recombinant full-length N-terminal His-FLAG-GST-tagged MAP3K5 (unknown origin) (654 to 971 residues) expressed in baculovirus infected Sf9 insect cells incubated for 1 hr by TR-FRET assay
[15] = molecular target: BMP-2-inducible protein kinase (Homo sapiens, UniProt Q9NSY1); assay: Binding affinity to recombinant full-length N-terminal His-FLAG-GST-tagged BMP2K (unknown origin) expressed in baculovirus infected Sf9 insect cells incubated for 1 hr by TR-FRET assay
[16] = molecular target: Citron Rho-interacting kinase (Homo sapiens, UniProt O14578); assay: Binding affinity to recombinant full-length N-terminal His-FLAG-GST-tagged CIT (unknown origin) (1 to 449 residues) expressed in baculovirus infected Sf9 insect cells incubated for 1 hr by TR-FRET assay
[17] = molecular target: Dual specificity mitogen-activated protein kinase kinase 1 (Homo sapiens, UniProt Q02750); assay: Binding affinity to recombinant full-length N-terminal His-FLAG-tagged MAP2K1 (unknown origin) expressed in baculovirus infected Sf9 insect cells incubated for 1 hr by TR-FRET assay
[18] = molecular target: Mitogen-activated protein kinase kinase kinase kinase 1 (Homo sapiens, UniProt Q92918); assay: Binding affinity to recombinant N-terminal His-FLAG-GST-tagged MAP4K1 (unknown origin) (1 to 346 residues) expressed in baculovirus infected Sf9 insect cells incubated for 1 hr by TR-FRET assay
[19] = molecular target: 3-phosphoinositide-dependent protein kinase 1 (Homo sapiens, UniProt O15530); assay: Binding affinity to recombinant full-length N-terminal His-FLAG-GST-tagged PDPK1 (unknown origin) expressed in baculovirus infected Sf9 insect cells incubated for 1 hr by TR-FRET assay
Chain of 3-phosphoinositide-dependent protein kinase 1 (O15530 whole entry): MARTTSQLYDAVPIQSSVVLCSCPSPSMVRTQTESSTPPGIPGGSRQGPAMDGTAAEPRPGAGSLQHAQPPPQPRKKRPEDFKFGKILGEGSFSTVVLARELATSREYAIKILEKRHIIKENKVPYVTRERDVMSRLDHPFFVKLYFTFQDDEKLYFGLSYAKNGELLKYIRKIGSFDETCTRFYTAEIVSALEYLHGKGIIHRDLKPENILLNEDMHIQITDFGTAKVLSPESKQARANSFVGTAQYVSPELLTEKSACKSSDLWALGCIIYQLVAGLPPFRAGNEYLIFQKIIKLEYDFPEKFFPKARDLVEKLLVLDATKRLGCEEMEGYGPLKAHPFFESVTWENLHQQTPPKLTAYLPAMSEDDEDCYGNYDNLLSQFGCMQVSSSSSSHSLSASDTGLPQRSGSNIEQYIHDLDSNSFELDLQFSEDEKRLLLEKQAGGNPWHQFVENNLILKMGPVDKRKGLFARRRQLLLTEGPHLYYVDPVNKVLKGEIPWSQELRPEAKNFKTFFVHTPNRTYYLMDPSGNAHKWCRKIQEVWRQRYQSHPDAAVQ

[20] = molecular target: Tyrosine-protein kinase receptor UFO (Homo sapiens, UniProt P30530); assay: Binding affinity to recombinant full-length N-terminal His-FLAG-GST-tagged AXL (unknown origin) expressed in baculovirus infected Sf9 insect cells incubated for 1 hr by TR-FRET assay
[21] = molecular target: Serine/threonine-protein kinase 16 (Homo sapiens, UniProt O75716); assay: Binding affinity to recombinant full-length N-terminal His-FLAG-GST-tagged STK16 (unknown origin) expressed in baculovirus infected Sf9 insect cells incubated for 1 hr by TR-FRET assay
[22] = molecular target: Dual specificity tyrosine-phosphorylation-regulated kinase 1A (Homo sapiens, UniProt Q13627); assay: Binding affinity to recombinant full-length N-terminal His-FLAG-GST-tagged DYRK1A (unknown origin) expressed in baculovirus infected Sf9 insect cells incubated for 1 hr by TR-FRET assay
[23] = molecular target: Cyclin-C/Cyclin-dependent kinase 19 (Homo sapiens, UniProt Q9BWU1); assay: Binding affinity to recombinant human full length N-terminal GST-tagged CDK19 co-expressed with N-terminal GST-tagged CyclinC expressed in baculovirus expression system using RNA polymerase peptide as substrate incubated for 1 hr by TR-FRET assay
[24] = molecular target: Inhibitor of nuclear factor kappa-B kinase subunit epsilon (Homo sapiens, UniProt Q14164); assay: Binding affinity to recombinant full-length N-terminal His-FLAG-GST-tagged IKBKE (unknown origin) expressed in baculovirus infected Sf9 insect cells incubated for 1 hr by TR-FRET assay

Chain of Protein kinase C eta type (P24723 whole entry, the tested form may be a part): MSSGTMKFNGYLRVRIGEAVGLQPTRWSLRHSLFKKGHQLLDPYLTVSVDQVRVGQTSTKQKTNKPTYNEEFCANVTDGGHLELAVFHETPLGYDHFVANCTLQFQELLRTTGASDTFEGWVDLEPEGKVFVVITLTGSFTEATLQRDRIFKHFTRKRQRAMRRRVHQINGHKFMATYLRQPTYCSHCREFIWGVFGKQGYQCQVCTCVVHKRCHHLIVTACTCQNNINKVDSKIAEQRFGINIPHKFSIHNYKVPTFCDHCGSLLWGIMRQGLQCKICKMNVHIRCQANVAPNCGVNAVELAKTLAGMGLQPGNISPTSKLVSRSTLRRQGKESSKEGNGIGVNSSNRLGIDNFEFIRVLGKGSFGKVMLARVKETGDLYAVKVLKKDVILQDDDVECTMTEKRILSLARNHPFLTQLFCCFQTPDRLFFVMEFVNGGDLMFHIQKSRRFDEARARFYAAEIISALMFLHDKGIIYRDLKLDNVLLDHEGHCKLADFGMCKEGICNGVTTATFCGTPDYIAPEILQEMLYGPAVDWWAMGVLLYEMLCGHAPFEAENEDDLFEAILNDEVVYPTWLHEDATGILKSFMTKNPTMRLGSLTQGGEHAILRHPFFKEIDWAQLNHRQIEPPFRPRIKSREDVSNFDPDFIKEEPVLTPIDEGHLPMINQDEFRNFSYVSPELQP

SMILES	Kd [1] [nM]	Kd [2] [nM]	Kd [3] [nM]	Kd [4] [nM]	Kd [5] [nM]	Kd [6] [nM]	Kd [7] [nM]	Kd [8] [nM]	Kd [9] [nM]	Kd [10] [nM]	Kd [11] [nM]	Kd [12] [nM]	Kd [13] [nM]	Kd [14] [nM]	Kd [15] [nM]	Kd [16] [nM]	Kd [17] [nM]	Kd [18] [nM]	Kd [19] [nM]	Kd [20] [nM]	also measured
CO[C@@H]1[C@H](NCCOCCOCCOCCNC(=O)CCC2=[N+]3C(=Cc4c(C)cc(C)n4[B-]3(F)F)C=C2)C[C@H]2O[C@]1(C)n1c3ccccc3c3c4c(c5c6ccccc6n2c5c31)C(=O)NC4	61	5	1250	318	379	13	798	19	766	446	345	8	6	136	24	747	328	17	8	313	Kd [21]: 365 nM; Kd [22]: 138 nM; Kd [23]: 259 nM; Kd [24]: 58 nM
CO[C@@H]1[C@H](N(C)CCOCCOCCOCCNC(=O)CCC2=[N+]3C(=Cc4c(C)cc(C)n4[B-]3(F)F)C=C2)C[C@H]2O[C@]1(C)n1c3ccccc3c3c4c(c5c6ccccc6n2c5c31)C(=O)NC4	37	6	1350	396	765	3	1030	12	887	984	249	49	5	248	19	710	428	24	8	559	Kd [21]: 110 nM; Kd [22]: 102 nM; Kd [23]: 125 nM; Kd [24]: 44 nM
